This passage reports IC50, inhibition and trolox equivalent results from ChEMBL document CHEMBL1250510, “2,3-diarylxanthones as strong scavengers of reactive oxygen and nitrogen species: a structure-activity relationship study” (Bioorg Med Chem, 2010).

Molecules are shown by their SMILES. Active and inactive are the calls of the source. The calls are words filed in the database; no cut-off is given here.

Common to all, as to format: functional
Assay [1] in a line: Antioxidant activity assessed as singlet oxygen scavenging activity by spectrophotometry.
The nature of assay [2]: Antioxidant activity assessed as superoxide radical scavenging activity by spectrophotometry.
A short description of assay [3]: Antioxidant activity assessed as hydrogen peroxide scavenging activity at 250 uM by spectrophotometry.
The nature of assay [4]: Antioxidant activity assessed as hypocholrous acid scavenging activity by spectrophotometry.
A short description of assay [5]: Antioxidant activity assessed as nitric oxide scavenging activity by spectrophotometry.
The nature of assay [6]: Antioxidant activity assessed as peroxynitrite scavenging activity by spectrophotometry in presence of NaHCO3.
Assay [7] can be described thus: Antioxidant activity assessed as peroxynitrite scavenging activity by spectrophotometry in absence of NaHCO3.
The nature of assay [8]: Antioxidant activity assessed as singlet oxygen scavenging activity at 100 uM by spectrophotometry.
Assay [9] is described as follows: Antioxidant activity assessed as peroxyl radical scavenging activity assessed as trolox equivalent by spectrophotometry.
A short description of assay [10]: Antioxidant activity assessed as hydrogen peroxide scavenging activity by spectrophotometry.
Assay [11] can be described thus: Antioxidant activity assessed as superoxide radical scavenging activity at 25 uM by spectrophotometry.
Assay [12] can be described thus: Antioxidant activity assessed as hydrogen peroxide scavenging activity at 125 uM by spectrophotometry.
Assay [13] is described as follows: Antioxidant activity assessed as nitric oxide scavenging activity at 200 uM by spectrophotometry.
The nature of assay [14]: Antioxidant activity assessed as peroxynitrite scavenging activity at 50 uM by spectrophotometry in presence of NaHCO3.
Assay [15] is described as follows: Antioxidant activity assessed as peroxynitrite scavenging activity at 50 uM by spectrophotometry in absence of NaHCO3.
Assay [16] in a line: Antioxidant activity assessed as peroxyl radical scavenging activity assessed as trolox equivalent at 1 uM by spectrophotometry.
Assay [17] in a line: Antioxidant activity assessed as superoxide radical scavenging activity at 200 uM by spectrophotometry.

For the molecule `O=c1c(O)c(-c2ccc(O)c(O)c2)oc2cc(O)cc(O)c12` [QUERCETIN], the IC50 in [1] is 1.8 µM.

On to `O=c1c2ccccc2oc2cc(-c3ccc(O)c(O)c3)c(-c3ccc(O)c(O)c3)cc12`, for which the IC50 in assay [2] was 10.4 µM; in assay [4], 1.2 µM; in assay [5], 0.39 µM; in [6] it was 0.17 µM; in assay [7] it was 0.33 µM; in assay [8], 2.5 µM. The inhibition in [3] was 17%. In addition, the trolox equivalent in assay [9] worked out at 0.28.

For the molecule `O=c1c2ccccc2oc2cc(-c3ccccc3)c(-c3ccc(O)c(O)c3)cc12`, the IC50 came out at 28.1 µM in assay [2]; 15.7 µM in assay [4]; 1.88 µM in assay [5]; 0.4 µM in assay [6]; 0.54 µM in assay [7]; 6 µM in assay [8]. For the same molecule, the inhibition in assay [3] came to 9%. For the same molecule, the trolox equivalent in [9] was determined as 0.76.

For the molecule `O=C1O[C@H]([C@@H](O)CO)C(O)=C1O` [ASCORBIC ACID], the IC50 came out at 602 µM in assay [10] and 0.22 µM in assay [9].

Take `O=S(=O)(O)c1cc(O)c(O)c(S(=O)(=O)O)c1` [TIRON]: in assay [2], the IC50 stood at 273 µM.

In the case of `O=c1c2ccccc2oc2cc(-c3ccccc3)c(-c3ccccc3)cc12`, the inhibition entry in [11], in [12] and in [16] was “inactive” throughout. Moreover, in assay [4], the IC50 worked out at 155 µM. In addition, the inhibition in [13] turned out to be 39%; in [14], 29%; in [15] it was 48%; in [8], 27%.

`C[C@@H]1O[C@@H](OC[C@H]2O[C@@H](Oc3c(-c4ccc(O)c(O)c4)oc4cc(O)cc(O)c4c3=O)[C@H](O)[C@@H](O)[C@@H]2O)[C@H](O)[C@H](O)[C@H]1O` [RUTIN]: in assay [5], the IC50 turned out to be 2.53 µM.

Turning to `O=c1c2ccccc2oc2cc(-c3ccccc3)c(-c3ccc(O)cc3)cc12`, the inhibition result in assay [17] and in assay [12] was “inactive” throughout. Also, the IC50 in [4] is 72.1 µM; in assay [5], 175 µM; in assay [6] it was 1.55 µM; in [7], 1.8 µM; in assay [8], 80 µM. The trolox equivalent in [9] worked out at 1.05.

Consider `O=c1c2ccccc2oc2cc(-c3ccc(O)cc3)c(-c3ccccc3)cc12`, for which the inhibition result in assay [17] and in assay [12] was “inactive” each time. Also, the IC50 in [4] was 53.8 µM; in assay [6], 2.66 µM; in assay [7], 2 µM; in assay [8] it was 68.8 µM. The inhibition in [13] came to 41%. Moreover, in assay [9], the trolox equivalent stood at 2.08.

On to `O=c1c2ccccc2oc2cc(-c3ccc(O)cc3)c(-c3ccc(O)cc3)cc12`, for which the IC50 was 166 µM in [2]; 22.4 µM in assay [4]; 108 µM in assay [5]; 1.72 µM in assay [6]; 0.97 µM in assay [7]; 58.4 µM in [8]. For the same molecule, in assay [12], the inhibition entry is “inactive”. The trolox equivalent in assay [9] turned out to be 2.88.

Turning to `O=c1c2ccccc2[se]n1-c1ccccc1` [EBSELEN], the IC50 came out at 0.5 µM in assay [6] and 2.01 µM in [7].

As to `O=c1c2ccccc2oc2cc(-c3ccc(O)cc3)c(-c3ccc(O)c(O)c3)cc12`, the IC50 in assay [2] worked out at 20.3 µM; in assay [4], 14.7 µM; in assay [5], 0.42 µM; in assay [6], 0.26 µM; in [7] it was 0.78 µM; in [8], 3.3 µM. Moreover, the inhibition in assay [3] was 14%. Also, in [9], the trolox equivalent came out at 0.88.

Take `O=C(O)CCCC[C@@H](S)CCS` [DIHYDROLIPOIC ACID]: in assay [4], the 50% inhibitory concentration (IC50) is 2.3 µM.

For the molecule `O=c1c2ccccc2oc2cc(-c3ccc(O)c(O)c3)c(-c3ccccc3)cc12`, the 50% inhibitory concentration (IC50) in assay [2] was 76 µM; in [4], 10.8 µM; in assay [5], 1.22 µM; in assay [6], 0.37 µM; in assay [7] it was 0.67 µM; in assay [8], 4.5 µM. Besides, in assay [3], the inhibition is 9%. For the same molecule, the trolox equivalent in [9] was 0.84.

As to `O=c1c2ccccc2oc2cc(-c3ccc(O)c(O)c3)c(-c3ccc(O)cc3)cc12`, the IC50 in [2] amounted to 31.3 µM; in [4], 7.5 µM; in [5], 0.62 µM; in assay [6], 0.22 µM; in assay [7] it was 0.89 µM; in [8] it was 6.8 µM. In assay [3], the inhibition was 12%. Also, the trolox equivalent in [9] was 0.83.

As usually defined, the IC50 is the concentration that gives 50% inhibition. The inhibition is the share of the control response that was lost under treatment.
